In patent EP0033825A2, “2-Cyano-vinyl-(thiono)(thiol)-phosphoric or phosphonic acid derivatives as endoparasiticidal agents” (priority 1980, dated 1981):
Like-named read-outs stand apart in the source and are kept apart here.

Assays:
[1] = tested on: gegen Benzimidazol-Anthelmintika resistenten Haemonchus contortus; test: Haemonchus contortus/sheep test, benzimidazole-resistant strain (faecal egg count before and after oral treatment); assay type: in vivo; settings: read-out: Dosis effectiva minima (Red. ≥90 %) resistenter Stamm
Text: (§1) Haemonchus contortus/Schaf
(§2) Experimentell mit normal empfindlichen bzw. mit gegen Benzimidazol-Anthelmintika resistenten Haemonchus contortus infizierte Schafe wurden nach Ablauf der Präpatenzzeit des Parasiten behandelt. Die Wirkstoffe wurde als reiner Wirkstoff in Gelatinekapseln oral appliziert.
(§3) Der Wirkungsgrad wird dadurch bestimmt, daß man die mit dem Kot ausgeschiedenen Wurmeier vor und nach der Behandlung quantitativ auszählt.
(§4) Ein völliges Sistieren der Eiausscheidung nach der Behandlung bedeutet, daß die Würmer abgetrieben wurden oder so geschädigt sind, daß sie keine Eier mehr produzieren (Dosis effectiva).
(§5) Geprüfte Wirkstoffe und wirksame Dosierungen (Dosis effectiva minima) sind aus der nachfolgenden Tabelle ersichtlich: […]

[2] = tested on: normal empfindlichen Haemonchus contortus; test: Haemonchus contortus/sheep test, normally sensitive strain (faecal egg count before and after oral treatment); assay type: in vivo; settings: Schaf, pure active substance in gelatine capsules, treated after prepatent period, reduction of worm egg excretion ≥90 %, read-out: Dosis effectiva minima (Red. ≥90 %) normal empfind-licher Stamm
Text: as §1, §2, §3, §4, §5

[3] = Schaf, oral, pure active substance in gelatine capsules, treated after prepatent period, reduction of worm egg excretion ≥90 %, benzimidazole-resistant strain

## CCCSc1ccc2nc(NC(=O)OC)[nH]c2c1 [Albendazol, Methyl-(5-prepylthio-benzimidazol-2-yl)-carbamat]
[1]; po
  minimal effective dose: 5 mg/kg
[2]
  minimal effective dose: 0.5 mg/kg

## COC(=O)Nc1nc2ccc(Sc3ccccc3)cc2[nH]1 [Fenbendazol, Methyl-(5-phenyl-thie-benzimidazol-2-yl)-carbamat]
[1]; po
  minimal effective dose: 2.5 mg/kg
[2]
  minimal effective dose: 0.5 mg/kg

## CCCCc1ccc2[nH]c(NC(=O)OC)nc2c1 [Parbendazol, 5-N-Butyl-2-methoxycarbonylaminobenzimidazol]
[1]; po
  minimal effective dose: 10 mg/kg
[2]
  minimal effective dose: 1 mg/kg

## c1ccc2[nH]c(-c3cscn3)nc2c1 [Thiabendazol, 2-(4-Thiazolyl)-benzimidazel]
[1]; po
  minimal effective dose: 250 mg/kg
[2]
  minimal effective dose: 25 mg/kg

## CCOP(=S)(OCC)OC(=CC#N)c1cccc(C)c1 [Verbindung Nr. 12]
[1]; [3]
  minimal effective dose: 1 mg/kg
[2]
  minimal effective dose: 1 mg/kg

## CCOP(=S)(OCC)OC(=CC#N)c1ccccc1Br [Verbindung Nr. 46]
[1]; [3]
  minimal effective dose: 1 mg/kg
[2]
  minimal effective dose: 1 mg/kg

## CCCOP(=S)(OCC)OC(=CC#N)c1ccccc1C (centres unmarked) [Verbindung Nr. 89]
[1]; [3]
  minimal effective dose: 2.5 mg/kg
[2]
  minimal effective dose: 2.5 mg/kg
